Assay results as given in patent US11331290B2, “Niclosamide for the treatment of cancer metastasis” (Max-Delbrück-Centrum für Molekulare Medizin in der …, priority 2011, dated 2022).

How the values were obtained:
[1] = test system: HCT116-S100A4 cells; test: Boyden chamber invasion assay (Matrigel); assay type: cell-based, human; conditions: 1 μM, 24 h, statistically not significant
Experimental: (§1) HCT116, SW620, LS174T, SW480 and DLD-1 cells were used in cell migration and invasion analysis performed with Boyden chamber assay. 400 μL containing 2.5×10^5 cells were seeded into each transwell chamber with filter membranes of 12.0 μm pore size (Millipore, Schwalbach, Germany). For invasion filter membranes were coated with 50 μL Matrigel (diluted 1:3 in RPMI-1640; BD Biosciences) 10 minutes before cells were seeded. Fresh medium (600 μL) were added to the bottom chamber and cells were allowed to attach to the insets for 15 hours. Both chambers were treated with 1 μM niclosamide or the respective amount of DMSO and incubated at 37° C. and 5% CO2 in a humidified incubator for 24 hours. Afterwards insets were removed and cells that had migrated through the membrane to the lower chamber were trypsinized and counted in a Neubauer chamber (LO-Laboroptik, Bad Homburg, Germany). Each well was counted ten times. Each migration or invasion experiment was performed in duplicate. The average number of migrated or invaded cells was determined for at least three independent experiments.
(§2) (A) Cell migration of HCT116-vector and HCT116-S100A4 cells exposed to niclosamide treatment. Cells were treated with 1 μM niclosamide for 24 hours and migration rates were measured with Boyden chamber assay. (B) Cell invasion of HCT116-vector and HCT116-S100A4 cells exposed to niclosamide treatment. Cells were treated with 1 μM niclosamide for 24 hours and cell invasion was determined by Boyden chamber assay. (C) Directed migration of HCT116-vector and HCT116-S100A4 cells exposed to niclosamide treatment analyzed by wound healing assay. Wounds of 300 μM width were set in a 60% confluent monolayer of HCT116-vector or HCT116-S100A4 cells on day 1. Cells were treated daily with 1 μM niclosamide for 4 days. Microphotographs of day 4 are presented here with black lines indicating margins of entered wound of day 1; scale bar represents 200 μM. Data represents three independent experiments. (D) Adhesive cell proliferation of HCT116-vector and HCT116-S100A4 cells exposed to niclosamide treatment. Cells were treated daily with 1 μM niclosamide and cell viability was determined with MTT assay. (E) Anchorage-independent cell growth of HCT116-vector and HCT116-S100A4 cells exposed to niclosamide treatment. Cells were plated as single cells into 0.33% (w/v) agarose and treatment (solvent or 1 μM niclosamide) containing medium. After 7 days colonies were visualized by light microscopy at 10× (overview) and 40× (single colony) magnification. (F) Quantification of colonies formed. Number of colonies (of more than 4 cells) was counted and normalized to solvent-treated HCT116-vector cells. Differences of niclosamide vs. solvent-treated cells were analyzed by Student's t test. […]

[2] = test system: HCT116-vector cells; test: Boyden chamber invasion assay (Matrigel); assay type: cell-based, human; conditions: 24 h
Experimental: as §1, §2

How did the “invasion rate, mean %” value ([1]; solvent control 111.4%) turn out when `O=C(Nc1ccc([N+](=O)[O-])cc1Cl)c1cc(Cl)ccc1O` [niclosamide, 2′,5-dichloro-4′-nitrosalicylanilide] was run?
The value was 122.5%.

What about the “invasion, mean difference control vs niclosamide” value [1] of the same molecule?
The value was −11.1%.

And the “invasion, mean difference control vs niclosamide” value ([2]; 1 μM)?
The value was 69.9%.

What about the activity at 1 µM ([2]; Homo sapiens, read-out: number of invaded cells, mean % of control) of the same molecule?
The activity at 1 µM was 30.1%.
